# The source made the active and inactive calls. No cut-off for these calls is given here. Peptide text beside a SMILES is read from it. * marks the point of attachment. Lauroyl = CCCCCCCCCCCC(=O)*; Octanoyl = CCCCCCCC(=O)*
# Columns and labels:
# [1] = system: Staphylococcus aureus; assay: Synergistic antibacterial activity against Staphylococcus aureus 25923 measured after 18 hrs in presence of cephalothin by absorbance based analysis; assay type: functional, organism-based
# [2] = system: Staphylococcus aureus; assay: Antibacterial activity against Staphylococcus aureus assessed as reduction in survival bacterial growth in presence of <=2 ug/ml chymotrypsin measured after1 hr by absorbance based analysis; assay type: functional, organism-based; conditions: time 1.0 hrs
# [3] = system: Staphylococcus aureus; assay: Synergistic antibacterial activity against methicillin-resistant Staphylococcus aureus measured after 18 hrs in presence of streptomycin by absorbance based analysis; assay type: functional, organism-based
# [4] = Stability in mouse serum assessed as half life measured after 1 hr by HPLC analysis; assay type: ADME, cell-free
# [5] = system: Acinetobacter baumannii; assay: Antibacterial activity against Acinetobacter baumannii 5444 assessed as reduction in bacterial growth incubated for 18 to 24 hrs by broth microdilution method; assay type: functional; conditions: time 18-24 hrs
# [6] = system: Cell membrane; assay: Induction of cytoplasmic membrane depolarization in Escherichia coli assessed as increase in fluorescence intensity at 4 times MIC measured for 10 mins by DiSC3-5 dye based fluorescence assay
# [7] = system: Klebsiella pneumoniae; assay: Induction of morphological changes in Klebsiella pneumoniae assessed as cell adhesion at 2 times MIC measured after 120 mins by SEM analysis; assay type: functional, organism-based
# [8] = system: Klebsiella pneumoniae; assay: Induction of morphological changes in Klebsiella pneumoniae assessed as cell aggregation at 2 times MIC measured after 120 mins by SEM analysis; assay type: functional, organism-based
# [9] = Acute toxicity in male BALB/c mouse assessed lethal dose administered as ip dose measured for 7 days; assay type: organism-based; conditions: in vivo, time 7 day
# [10] = system: Staphylococcus aureus; assay: Additive antibacterial activity against Staphylococcus aureus 113 assessed as fractional inhibitory in presence of streptomycin by checker board assay; assay type: functional
# [11] = system: Escherichia coli; assay: Induction of cell membrane disruption in Escherichia coli assessed as PI uptake at 2 times MIC measured after 120 mins by PI staining based flow cytometry analysis (Rvb =<10 %); assay type: functional; conditions: 2 h
# [12] = system: Staphylococcus aureus; assay: Induction of morphological changes in Staphylococcus aureus assessed as cell aggregation at 2 times MIC measured after 30 mins by SEM analysis; assay type: functional, organism-based
# [13] = system: Staphylococcus aureus; assay: Induction of morphological changes in Staphylococcus aureus assessed as cell aggregation adhesion at 2 times MIC measured after 120 mins by SEM analysis; assay type: functional, organism-based
# [14] = system: Enterococcus faecalis; assay: Antibacterial activity against Enterococcus faecalis ATCC 29212 assessed as reduction in bacterial growth incubated for 18 to 24 hrs by broth microdilution method; assay type: functional; conditions: time 18-24 hrs
# [15] = system: Klebsiella pneumoniae; assay: Induction of morphological changes in Klebsiella pneumoniae assessed as cell aggregation at 2 times MIC measured after 30 mins by SEM analysis; assay type: functional, organism-based
# [16] = system: Staphylococcus aureus; assay: Synergistic antibacterial activity against methicillin-resistant Staphylococcus aureus measured after 18 hrs in presence of cephalothin by absorbance based analysis; assay type: functional, organism-based
# [17] = system: Staphylococcus aureus; assay: Synergistic antibacterial activity against Staphylococcus aureus 113 measured after 18 hrs in presence of polymyxin B by absorbance based analysis; assay type: functional, organism-based
# [18] = system: Staphylococcus aureus; assay: Antibacterial activity against methicillin resistant Staphylococcus aureus infected in male BALB/c mouse model of skin wound infection assessed as appearance of intact structure of stratum corneum at 2 mg/kg, ip measured after 10 days post infection; assay type: functional, organism-based; conditions: time 10.0 day
# [19] = system: Pseudomonas aeruginosa; assay: Antibacterial activity against Pseudomonas aeruginosa ATCC 27853 assessed as reduction in bacterial growth incubated for 18 to 24 hrs by broth microdilution method; assay type: functional; conditions: time 18-24 hrs
# [20] = system: Escherichia coli; assay: Bactericidal activity against Escherichia coli 25922 assessed as eradication of bacteria at 2 times MIC measured within 1 hr by time-kill assay; assay type: functional, organism-based
# [21] = Potency index, ratio of polymyxin B to test compound for acute toxicity in BALB/c mouse assessed lethal dose administered as ip dose measured for 7 days; assay type: organism-based; conditions: in vivo, 168 h, time 7 day
# [22] = system: Staphylococcus aureus; assay: Synergistic antibacterial activity against Staphylococcus aureus 25923 assessed as fractional inhibitory in presence of streptomycin by checker board assay; assay type: functional
# [23] = system: Staphylococcus aureus; assay: Induction of morphological changes in Staphylococcus aureus assessed as cell foaming at 2 times MIC measured after 30 mins by SEM analysis; assay type: functional, organism-based
# [24] = Stability in mouse serum assessed as retention time measured after 1 hr by RP-HPLC analysis; assay type: ADME, cell-free
# [25] = system: Escherichia coli; assay: Antibacterial activity against Escherichia coli 850 assessed as reduction in bacterial growth incubated for 18 to 24 hrs by broth microdilution method; assay type: functional; conditions: time 18-24 hrs
# [26] = system: Escherichia coli; assay: Antibacterial activity against Escherichia coli assessed as reduction in survival bacterial growth in presence of <=2 ug/ml chymotrypsin measured after1 hr by absorbance based analysis; assay type: functional, organism-based; conditions: time 1.0 hrs
# [27] = system: Staphylococcus aureus; assay: Bactericidal activity against Staphylococcus aureus 25923 assessed as eradication of bacteria at 2 times MIC measured within 1 hr by time-kill assay; assay type: functional, organism-based
# [28] = system: Staphylococcus aureus; assay: Antibacterial activity against Staphylococcus aureus 125 assessed as reduction in bacterial growth incubated for 18 to 24 hrs by broth microdilution method; assay type: functional; conditions: time 18-24 hrs
# [29] = system: Lipopolysaccharide (LPS); assay: Binding affinity to LPS (unknown origin) assessed as reduction in bacterial mortality at 2 times MIC preincubated with LPS for 1 hr followed by bacteria addition for 24 hrs by spectrophotometric analysis
# [30] = system: Acinetobacter baumannii; assay: Antibacterial activity against Acinetobacter baumannii 92359 assessed as reduction in bacterial growth incubated for 18 to 24 hrs by broth microdilution method; assay type: functional; conditions: time 18-24 hrs
# [31] = system: Staphylococcus aureus; assay: Antibacterial activity against Staphylococcus aureus 113 assessed as reduction in bacterial growth incubated for 18 to 24 hrs by broth microdilution method; assay type: functional; conditions: time 18-24 hrs
# [32] = system: Cell membrane; assay: Induction of inner membrane permeabilization in Escherichia coli at 2 times MIC measured for 135 mins by absorbance based analysis
# [33] = system: Cell membrane; assay: Induction of outer membrane permeabilization in Escherichia coli assessed as increase in fluorescence intensity at 2 to 4 times MIC measured for 10 mins by fluorescence based NPN uptake assay
# [34] = system: Klebsiella pneumoniae; assay: Induction of morphological changes in Klebsiella pneumoniae assessed as cell contraction at 2 times MIC measured after 30 mins by SEM analysis; assay type: functional, organism-based
# [35] = system: Escherichia coli; assay: Antibacterial activity against Escherichia coli assessed as reduction in survival bacterial growth in presence of KCl measured after 18 to 24 hrs (reference value: 8 microM); assay type: functional; conditions: time 18-24 hrs
# [36] = system: Cell membrane; assay: Induction of outer membrane permeabilization in Escherichia coli assessed as increase in fluorescence intensity measured for 10 mins by fluorescence based NPN uptake assay
# [37] = system: Pseudomonas aeruginosa; assay: Antibacterial activity against Pseudomonas aeruginosa 6434N assessed as reduction in bacterial growth incubated for 18 to 24 hrs by broth microdilution method; assay type: functional; conditions: time 18-24 hrs
# [38] = system: Klebsiella pneumoniae; assay: Antibacterial activity against Klebsiella pneumoniae ATCC 700603 infected in male BALB/c mouse lung infection model assessed as reduction in number of inflammatory cells at 5 mg/kg, ip measured after 6 to 36 hrs; assay type: functional, organism-based; conditions: time 6-36 hrs
# [39] = system: Klebsiella pneumoniae; assay: Induction of morphological changes in Klebsiella pneumoniae assessed as cell contraction at 2 times MIC measured after 120 mins by SEM analysis; assay type: functional, organism-based
# [40] = system: Escherichia coli; assay: Antibacterial activity against Escherichia coli ATCC 25922 assessed as reduction in bacterial growth incubated for 18 to 24 hrs by broth microdilution method; assay type: functional; conditions: time 18-24 hrs
# [41] = system: Staphylococcus epidermidis; assay: Antibacterial activity against Staphylococcus epidermidis ATCC 12228 assessed as reduction in bacterial growth incubated for 18 to 24 hrs by broth microdilution method; assay type: functional; conditions: time 18-24 hrs
# [42] = system: Klebsiella pneumoniae; assay: Antibacterial activity against Klebsiella pneumoniae ATCC 700603 infected in male BALB/c mouse lung infection model assessed as expansion of lung alveoli at 5 mg/kg, ip measured after 6 to 36 hrs; assay type: functional, organism-based; conditions: time 6-36 hrs
compound,measurement,setting,value
CCCCCCCCCCCC(=O)N[C@@H](CCCCN)C(=O)N[C@@H](CCCCN)C(=O)N[C@@H](Cc1c[nH]c2ccccc12)C(=O)N[C@@H](Cc1c[nH]c2ccccc12)C(N)=O (Lauroyl-KKWW-NH2),Activity,[1],Active
same,Activity,[2],Active
same,Activity,[3],Active
same,half-life,[4],4.25 h
same,MIC,[5],16 µM
same,Activity,[6],Active; Compound Showed Pronounced Effect Than Quality Control Polymyxin B
same,Activity,[7],Active; Compound Showed More Pronounced Effect Compared To 30 Mins Incubation Time
same,Activity,[8],Active; Compound Showed More Pronounced Effect Compared To 30 Mins Incubation Time
same,LD50 at 168 h,[9],114 mg/kg
same,fractional inhibitory concentration index (FICI),[10],0.562
same,Activity,[11],>50%
same,Activity,[12],Active
same,Activity,[13],Active
same,MIC,[14],8 µM
same,Activity,[15],Active
same,Activity,[16],Active
same,Activity,[17],Active
same,Activity,[18],Active
same,MIC,[19],8 µM
same,Activity,[20],Active
same,Ratio,[21],4.84
same,fractional inhibitory concentration index (FICI),[22],0.187
same,Activity,[23],Active
same,Retention_time,[24],19.718 min
same,MIC,[25],8 µM
same,Activity,[26],Active
same,Activity,[27],Active
same,MIC,[28],4 µM
same,Activity,[29],Active
same,MIC,[30],16 µM
same,MIC,[31],4 µM
same,Activity,[32],Active; Compound Showed Higher Permeability Than Positive Control 0.1% Tritonx-100
same,Activity,[33],Active
same,Activity,[34],Active
same,MIC,[35],4 µM
same,Activity,[36],Dose-dependent-effect
same,MIC,[37],8 µM
same,Activity,[38],Active
same,Activity,[39],Active; Compound Showed More Pronounced Effect Compared To 30 Mins Incubation Time
same,MIC,[40],8 µM
same,MIC,[41],4 µM
same,Activity,[42],Active
CCCCCCCC(=O)NCCCC[C@H](NC(=O)CCCCCCC)C(=O)N[C@@H](CCCCN)C(=O)N[C@@H](CCCCN)C(=O)N[C@@H](Cc1c[nH]c2ccccc12)C(=O)N[C@@H](Cc1c[nH]c2ccccc12)C(N)=O (Octanoyl-K(Octanoyl)KKWW-NH2),Activity,[1],Active
same,Activity,[2],Active
same,Activity,[3],Active
same,half-life,[4],6.3 h
same,MIC,[5],16 µM
same,Activity,[6],Active; Compound Showed Pronounced Effect Than Quality Control Polymyxin B
same,Activity,[7],Active; Compound Showed More Pronounced Effect Compared To 30 Mins Incubation Time
same,Activity,[8],Active; Compound Showed More Pronounced Effect Compared To 30 Mins Incubation Time
same,LD50 at 168 h,[9],113 mg/kg
same,fractional inhibitory concentration index (FICI),[10],0.75
same,Activity,[11],>50%
same,Activity,[12],Active
same,Activity,[13],Active
same,MIC,[14],16 µM
same,Activity,[15],Active
same,Activity,[16],Active
same,Activity,[17],Active
same,Activity,[18],Active
same,MIC,[19],16 µM
same,Activity,[20],Active
same,Ratio,[21],4.78
same,fractional inhibitory concentration index (FICI),[22],0.312
same,Activity,[23],Active
same,Retention_time,[24],19.975 min
same,MIC,[25],8 µM
same,Activity,[26],Active
same,Activity,[27],Active
same,MIC,[28],8 µM
same,Activity,[29],Active
same,MIC,[30],8 µM
same,MIC,[31],8 µM
same,Activity,[32],Active
same,Activity,[33],Active
same,Activity,[34],Active
same,MIC,[35],8 µM
same,Activity,[36],Dose-dependent-effect
same,MIC,[37],16 µM
same,Activity,[38],Active
same,Activity,[39],Active; Compound Showed More Pronounced Effect Compared To 30 Mins Incubation Time
same,MIC,[40],8 µM
same,MIC,[41],8 µM
same,Activity,[42],Active
